Experimental data published in patent US20240238232A1, “COMPOSITIONS AND METHODS FOR THE REDUCTION OR TREATMENT OF INSULIN RESISTANCE AND METABOLIC CONDITIONS” (AXCELLA HEALTH INC., priority 2018, published 2024).

Tested on: Human CCL2 (MCP-1)
Assay: MCP1/CCL2 secretion in primary human hepatocytes (FFA + TNFα, ELISA after 24 h)
Assay type: cell-based
Settings: for MCP1 expression relative to Control, Mean: baseline subtracted; for MCP1/CCL2 secretion: primary human hepatocytes from two healthy donors, FFA + TNFα, 24 h
Experimental: Hepatocyte lipotoxicity appears to be a central driver of hepatic cellular injury via oxidative stress and endoplasmic reticulum (ER) stress. The ability of amino acids to influence steatosis (lipid accumulation) and inflammation in hepatocytes was assessed using human primary hepatocytes (Lonza, TRL).
Primary hepatocytes lot nos. from two healthy human donors were seeded on day 0 at density of 6e04 cells in 96 well optical microplates (Thermofisher) in hepatocyte plating media (William's E medium (Gibco) supplemented with 10% heat-inactivated FBS (Atlanta Bio), 2 mM Glutamax (Gibco), and 0.2% Primocin (InVivoGen) and incubated for 6 hours at 37° C., 5% CO2. After 6 hours, cells were washed twice and incubated overnight at 37° C., 5% CO2 with Hepatocytes defined medium (Corning) supplemented with 2 mM Glutamax (Gibco), and 1×Penicillin/Streptomycin. On day 1, cells were washed twice and incubated for 24 h in the hepatocyte culture media in the same conditions described above.
On day 2, cells were washed twice with DPBS 1 X (Gibco) and maintained in amino acid-free WEM (US Biologicals) containing a defined custom amino acid concentration based on the mean physiological concentrations in blood. The values are published in the Human Metabolome Database (Wishart D S, Tzur D, Knox C, et al., HMDB: the Human Metabolome Database. Nucleic Acids Res. 2007 January; 35 (Database issue): D521-6. 17202168; which is hereby incorporated by reference in its entirety). This custom media is supplemented with 11 mM Glucose, 0.272 mM Sodium Pyruvate, and a dose curve of defined amino acid compositions (i.e., vehicle, LIVRQ+N-acetylcysteine, LIVRQ, RQ+N-acetylcysteine, N-acetylcysteine alone, LIV, or individually with L-Leucine, L-Isoleucine, L-Valine, L-Arginine, L-Glutamine, and L-Cysteine) at various ranges of concentrations. Cells were maintained in this defined media for 24 hours at 37° C., 5% CO2.
Co-treatment with free fatty acids and different amino acids combination After pre-treatment, cells were exposed to free fatty acids (FFA) at 250 uM with a ratio of 2:1 (Oleate: Palmitate) supplemented with TNF-α (Thermofisher) at 1 ng/ml or vehicle. Cells were incubated with the FFAs mixture and the different amino acids combinations for 24 hours at 37° C., 5% CO2. After 24 hours incubation, media was removed for cytokine analysis and replaced by fresh media containing the same stimulus conditions and amino acid concentrations. Cells were incubated for an additional 48 hours for a total of 72 hours of FFA and TNFα stimulation.
Human CCL2 (MCP-1) was measured by ELISA (Human […] DuoSet ELISA, R&D Systems) at ⅕ or 1/10 dilution in 1 X Reagent Diluent (Reagent Ancillary Kit 2, R&D Systems). Data were normalized to the specific per well cell density determined by nuclei count stained by Hoechst 3342 (Life technologies) in the fluorescence microscopy described below.
MCP1 CCL2 Secretion Tables 56-59 show the baseline subtracted secretion of MCP1/CCL2 in primary human hepatocytes cells from two healthy donors (donor 1 for Tables 56 and 57, and donor 2 for Tables 58 and 59).

CC(=O)N[C@@H](CS)C(=O)O [N-acetyl cysteine, N-acetylcysteine]
MCP1 expression relative to Control, Mean (Donor 1, Conc. 1000 μM): −0.7629 | MCP1 expression relative to Control, Mean (Donor 1, Conc. 2500 μM): −2.498 | MCP1 expression relative to Control, Mean (Donor 1, Conc. 5000 μM): −10.8919 | MCP1 expression relative to Control, Mean (Donor 1, Conc. 10000 μM): −17.6065 | MCP1 expression relative to Control, Mean (Donor 1, Conc. (X) 5): −0.7629 | MCP1 expression relative to Control, Mean (Donor 1, Conc. (X) 10): −2.498 | MCP1 expression relative to Control, Mean (Donor 1, Conc. (X) 20): −10.8919 | MCP1 expression relative to Control, Mean (Donor 1, Conc. (X) 40): −17.6065 | MCP1 expression relative to Control, Mean (Donor 2, Conc. 1000 μM): 1.602 | MCP1 expression relative to Control, Mean (Donor 2, Conc. 2500 μM): −4.0591 | MCP1 expression relative to Control, Mean (Donor 2, Conc. 5000 μM): −10.5725 | MCP1 expression relative to Control, Mean (Donor 2, Conc. 10000 μM): −28.4419 | MCP1 expression relative to Control, Mean (Donor 2, Conc. (X) 1000): 1.602 | MCP1 expression relative to Control, Mean (Donor 2, Conc. (X) 2500): −4.0591 | MCP1 expression relative to Control, Mean (Donor 2, Conc. (X) 5000): −10.5725 | MCP1 expression relative to Control, Mean (Donor 2, Conc. (X) 10000): −28.4419 | MCP1/CCL2 secretion: significantly decrease

CC(C)C[C@H](N)C(=O)O [Leucine, L-Leucine]
MCP1 expression relative to Control, Mean (Donor 1, Conc. 153 μM): 5.92E−16 | MCP1 expression relative to Control, Mean (Donor 1, Conc. 3054 μM): 3.34 | MCP1 expression relative to Control, Mean (Donor 1, Conc. 7635 μM): 1.896 | MCP1 expression relative to Control, Mean (Donor 1, Conc. 15270 μM): −1.368 | MCP1 expression relative to Control, Mean (Donor 2, Conc. 153 μM): −4.7E−15 | MCP1 expression relative to Control, Mean (Donor 2, Conc. 3054 μM): 16.11 | MCP1 expression relative to Control, Mean (Donor 2, Conc. 7635 μM): −2.988 | MCP1 expression relative to Control, Mean (Donor 2, Conc. 15270 μM): −26.6436 | MCP1/CCL2 secretion: did not have an effect

NC(=O)CC[C@H](N)C(=O)O [glutamine, L-Glutamine]
MCP1 expression relative to Control, Mean (Donor 1, Conc. 749 μM): 0 | MCP1 expression relative to Control, Mean (Donor 1, Conc. 3747 μM): −0.8981 | MCP1 expression relative to Control, Mean (Donor 1, Conc. 11242 μM): −9.001 | MCP1 expression relative to Control, Mean (Donor 1, Conc. 22484 μM): −21.8392 | MCP1 expression relative to Control, Mean (Donor 2, Conc. 749 μM): 2.84E−14 | MCP1 expression relative to Control, Mean (Donor 2, Conc. 3747 μM): −45.0574 | MCP1 expression relative to Control, Mean (Donor 2, Conc. 11242 μM): −90.6558 | MCP1 expression relative to Control, Mean (Donor 2, Conc. 22484 μM): −138.873 | MCP1/CCL2 secretion: significantly decrease

CC[C@H](C)[C@H](N)C(=O)O [Isoleucine, L-Isoleucine]
MCP1 expression relative to Control, Mean (Donor 1, Conc. 66 μM): −1.2E−15 | MCP1 expression relative to Control, Mean (Donor 1, Conc. 1328 μM): −0.3073 | MCP1 expression relative to Control, Mean (Donor 1, Conc. 3320 μM): −2.417 | MCP1 expression relative to Control, Mean (Donor 1, Conc. 6639 μM): −0.205 | MCP1 expression relative to Control, Mean (Donor 2, Conc. 66 μM): 0 | MCP1 expression relative to Control, Mean (Donor 2, Conc. 1328 μM): 26.62 | MCP1 expression relative to Control, Mean (Donor 2, Conc. 3320 μM): −5.645 | MCP1 expression relative to Control, Mean (Donor 2, Conc. 6639 μM): 18.62 | MCP1/CCL2 secretion: did not have an effect

N=C(N)NCCC[C@H](N)C(=O)O [arginine, L-Arginine]
MCP1 expression relative to Control, Mean (Donor 1, Conc. 109 μM): 2.37E−15 | MCP1 expression relative to Control, Mean (Donor 1, Conc. 1088 μM): 5.114 | MCP1 expression relative to Control, Mean (Donor 1, Conc. 2720 μM): 6.527 | MCP1 expression relative to Control, Mean (Donor 1, Conc. 5440 μM): 10.9386 | MCP1 expression relative to Control, Mean (Donor 2, Conc. 109 μM): −4.7E−15 | MCP1 expression relative to Control, Mean (Donor 2, Conc. 1088 μM): 24.95 | MCP1 expression relative to Control, Mean (Donor 2, Conc. 2720 μM): 24.06 | MCP1 expression relative to Control, Mean (Donor 2, Conc. 5440 μM): 8.494 | MCP1/CCL2 secretion: increased

CC(C)[C@H](N)C(=O)O [Valine, L-Valine]
MCP1 expression relative to Control, Mean (Donor 1, Conc. 234 μM): −2.4E−15 | MCP1 expression relative to Control, Mean (Donor 1, Conc. 4684 μM): 23.6867 | MCP1 expression relative to Control, Mean (Donor 1, Conc. 11710 μM): 77.73 | MCP1 expression relative to Control, Mean (Donor 1, Conc. 23420 μM): 14.17 | MCP1 expression relative to Control, Mean (Donor 2, Conc. 234 μM): −1.4E−14 | MCP1 expression relative to Control, Mean (Donor 2, Conc. 4684 μM): 10.79 | MCP1 expression relative to Control, Mean (Donor 2, Conc. 11710 μM): 38.25 | MCP1 expression relative to Control, Mean (Donor 2, Conc. 23420 μM): −30.7921 | MCP1/CCL2 secretion: did not have an effect
